According to patent publication US20040127403A1, “Methods for treating and preventing Gram-positive bacteremias” (priority 2002, published 2004):

What was measured:
[1] = Multiple dose study in healthy male volunteers: absorption and fecal concentrations; format: in vivo, human
Experimental: (§1) Healthy male volunteers were administered 200, 400, or 800 mg ramoplanin twice-a-day, for ten consecutive days. The predetermined dose was reconstituted in 5 mL water per vial, mixed with 50 mL of sweetened, aromatized solution, and immediately administered orally to the subjects.
No absorption from the human gastrointestinal tract was observed.

[2] = In vitro interaction of ramoplanin with human intestinal contents
Excerpt: The in vitro interaction of ramoplanin with human intestinal contents was studied. […] The binding and the subsequent release of ramoplanin from feces would likely result in long-lasting concentrations in the intestinal tract.

[3] = Oral bioavailability and pharmacokinetics in the rat; format: in vivo
Experimental: The oral availability of ramoplanin was assessed by comparing a 1000 mg/kg oral dose with a 5 mg/kg intravenous dose in the rat. […] The mean absorption time was 3.4 hours. […] Terminal elimination half-lives were 3.5 and 5.9 hours for the intravenous and oral doses, respectively. […] In intravenously treated rats, the amount excreted in urine represented less than 0.01% of the administered dose.

fecal Enterococci = experiment: Oral formulation study: suppression of fecal Enterococci; format: in vivo, human; conditions: 400 mg b.i.d. seven days, granulated powder in Orasweet syrup; day 7/8
Experimental: To further elucidate the pharmacodynamics and intestinal bioavailability, healthy male volunteers (18-45 years; BMI—19-29 kg/m^2) were administered oral ramoplanin (400 mg b.i.d.) for seven days and fecal Enterococci were monitored. Ramoplanin was administered to six subjects as a granulated powder admixed with Orasweet® syrup vehicle.
The presence of fecal enterococci was confirmed in all subjects prior to study initiation. Fecal samples were cultured on day 7/8. The pharmacodynamic endpoints was the number of subjects with successful suppression of fecal Enterococci on day 7/8 compared to the pre-study culture.

VRE = experiment: Multiple dose study in asymptomatic carriers of intestinal VRE; format: in vivo, human; conditions: for patients with no detectable VRE, number / patients with no detectable VRE: Day 7; for patients with no detectable VRE: rectal swab; for patients VRE free: Day 14 (seven days after cessation); for patients VRE free, number: Day 14
Experimental: Patients identified as asymptomatic carriers of VRE were administered placebo or one of two dosages (100 mg, 400 mg) of ramoplanin b.i.d. (twice daily) for seven days. Patients were assessed by rectal swab on Days 7, 14, and 21 to determine the presence or absence of VRE. On Days 45 and 90, stool samples were analyzed for long-term effects of ramoplanin on the recurrence of, or re-infection with, VRE. All VRE isolates were tested for susceptibility to ramoplanin.

[4] = tested on: Gram-positive bacteria (staphylococci, streptococci, enterococci) in feces; experiment: Multiple dose study: activity on stool microflora, Gram-positive bacteria; format: in vivo, human
Experimental: as §1
(§2) The antibacterial activity of ramoplanin on the stool microflora was assessed in a subset of the subjects. Microbial concentrations (i.e., the number of organisms per gram of fecal matter) were determined at the following time points: Day-4 (pre-treatment), Days 4 and 10 (treatment), and Days […] and 24 (follow-up). Tolerability and absorption were also investigated.

[5] = Storage stability of ramoplanin granules and reconstituted solution; format: physicochemical; conditions: refrigerated conditions
Experimental: Ramoplanin is available as granules for oral solution, provided, for example, in packets containing 400 mg free base of ramoplanin, along with pharmaceutically acceptable excipients (e.g., mannitol, hydroxypropyl methylcellulose, magnesium stearate). The contents of the packet can be reconstituted with approximately 15-30 mL of water, and the resulting solution either consumed directly, or further diluted with water, cranberry juice, apple juice, or 7-Up prior to drinking. After consumption, the drug may be followed with subsequent amounts of these beverages or with food (e.g., cracker, bread). […] The reconstituted ramoplanin aqueous solution has a shelf life of 48 hours when stored at refrigerated conditions.

Clostridium spp. = experiment: Multiple dose study: activity on stool microflora, Clostridium; format: in vivo, human
Experimental: as §1, §2

[6] = tested on: Gram-negative bacteria (enteric bacteria and Bacteroides spp.) or yeast; experiment: Multiple dose study: activity on stool microflora, Gram-negative bacteria and yeast; format: in vivo, human; conditions: healthy male volunteers, oral 200, 400, 800 mg B.I.D. 10 days
Experimental: as §1, §2

In the case of Ramoplanin, the “absorption from the human gastrointestinal tract” value ([1]; 200, 400 or 800 mg twice-a-day, ten days) is reported as “No absorption”, the “urine levels of ramoplanin” value ([1]; Day 1 and 5 and pooled urine up to 72-96 after the last dose) is reported as “No levels were found in urine” and the “average fecal concentration of ramoplanin” value (“average fecal concentration” below) ([1]; Day 3, 200 mg twice-a-day) is reported as 827 µg/g. The “average fecal concentration” value ([1]; Day 3, 400 mg twice-a-day) was 1742 µg/g, the “average fecal concentration” value ([1]; Day 3, 800 mg twice-a-day) was 1901 µg/g and the “average fecal concentration” value ([1]; Day 10, 200 mg twice-a-day) was 949 µg/g. For the same substance, the “average fecal concentration” value ([1]; Day 10, 400 mg twice-a-day) was 1417 µg/g, the “average fecal concentration” value ([1]; Day 10, 800 mg twice-a-day) was 2647 µg/g and the “serum levels of ramoplanin” value ([1]; Days 1, 5 and 10, hour 0.5-12 after the morning dose) was “no serum levels of ramoplanin were detected”. The fecal concentrations post-treatment ([1]; four days post-treatment) was “remained detectable in some subjects”, the “cumulative recovery in feces” value ([1]; up to Day 4 post-treatment) was 25 % of the administered dose and the binding to feces [2] was “bind reversibly to solid components of feces”. For the same substance, the “microbiological activity in feces” value [2] was “microbiologically active in feces”, the “amount excreted in urine” value ([3]; intravenously treated rats) was “less than 0.01 % of the administered dose” and the distribution ([3]; rat) was “not widely distributed outside the central compartment”. For the same substance, the “volume of distribution at steady state” value ([3]; rat) was 0.75 L/kg, the “volume of the central compartment” value ([3]; rat) was 0.42 L/kg and the “time of maximum observed serum concentration” value ([3]; rat, 5 mg/kg intravenous) was 0.083 h. The “Maximum observed serum concentration” value ([3]; rat, 1000 mg/kg oral) was 2.8 µg/mL, the mean absorption time ([3]; rat, 1000 mg/kg oral) was 3.4 h and the “time of maximum observed serum concentration” value ([3]; rat, 1000 mg/kg oral) was 0.5 h. For the same substance, the “absolute bioavailability (F)” value ([3]; rat, 1000 mg/kg oral relative to 5 mg/kg intravenous) was 0.18%, the Terminal elimination half-life ([3]; rat, intravenous dose) was 3.5 h and the Terminal elimination half-life ([3]; rat, oral dose) was 5.9 h. For the same substance, the “growth of fecal enterococci” value (fecal Enterococci) was “suppressed in all test subjects”, the “patients with no detectable VRE, number” value (VRE; 100 mg b.i.d. for seven days) was 17 of 21 and the “patients with no detectable VRE” value (VRE; 100 mg b.i.d. for seven days) was 81.0%. The “patients with no detectable VRE, number” value (VRE; 400 mg b.i.d. for seven days) was 18 of 20, the “patients with no detectable VRE” value (VRE; 400 mg b.i.d. for seven days) was 90.0% and the “patients VRE free” value (VRE; 100 mg b.i.d.) was 28.6%. For the same substance, the “patients VRE free” value (VRE; 400 mg b.i.d.) was 41.2%, the “patients VRE free, number” value (VRE; 100 mg b.i.d.) was 6 of 21 and the “patients VRE free, number” value (VRE; 400 mg b.i.d.) was 7 of 17. The “number of VRE-free patients” value (VRE; Day 21) was “comparable among all treatment groups”, the “concentrations of staphylococci, streptococci, and enterococci in stool” value ([4]; by Day 10, all subjects) was “below the level of detection” and the “effect on Gram-positive bacteria in stool” value ([4]; first measurement on Day 4 of treatment) was “marked effect”. For the same substance, the “intestinal flora after therapy” value ([4]; follow-up after the 10-day therapy) was “re-colonized by normal Gram-positive bacteria”, the “Gram-positive colony counts in feces” value ([4]; healthy male volunteers, all doses (200, 400, 800 mg B.I.D.), during the 10-day regimen) was “undetectable levels” and the storage stability ([5]; 400 mg granulated powder packets) was “stable for at least one year”. For the same substance, the shelf life ([5]; reconstituted ramoplanin aqueous solution) was 48 h, the “subjects with Clostridium spp. concentration reduced below detectable levels” value (Clostridium spp.; multiple dose study, stool microflora subset) was 10 of 12 and the clostridial load (Clostridium spp.; two subjects carrying ramoplanin- and vancomycin-resistant Clostridium spp. (C. rectum and C. beijerinckii) before treatment) was “no variation”. For the same substance, the “effect on Gram-negative flora / yeast in stool” value [6] was “not effective” and the “effect on Gram-negative flora / yeast in stool” value ([6]; listed as ramoplanin) was “no effect”.
